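These data come from cells grown in 96-well plates and exposed to compound for 48 hours at five concentrations. GI50 is the concentration that inhibits growth by half. TGI: total growth inhibition.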
Assays:
Assay in all cases: growth of human tumour cells (NCI), 48 h
NCI-H226 lung = tested on: NCI-H226 lung
NCI-H23 lung = tested on: NCI-H23 lung
NCI-H460 lung = tested on: NCI-H460 lung
NCI-H522 lung = tested on: NCI-H522 lung
NCI/ADR-RES ovarian = tested on: NCI/ADR-RES ovarian
OVCAR-3 ovarian = tested on: OVCAR-3 ovarian
OVCAR-4 ovarian = tested on: OVCAR-4 ovarian
OVCAR-5 ovarian = tested on: OVCAR-5 ovarian
OVCAR-8 ovarian = tested on: OVCAR-8 ovarian
PC-3 prostate = tested on: PC-3 prostate
RPMI-8226 leukemia = tested on: RPMI-8226 leukemia
RXF 393 renal = tested on: RXF 393 renal
SF-268 CNS = tested on: SF-268 CNS
SF-295 CNS = tested on: SF-295 CNS
SK-MEL-2 melanoma = tested on: SK-MEL-2 melanoma
SK-MEL-28 melanoma = tested on: SK-MEL-28 melanoma
SK-MEL-5 melanoma = tested on: SK-MEL-5 melanoma
SK-OV-3 ovarian = tested on: SK-OV-3 ovarian
SN12C renal = tested on: SN12C renal
SNB-19 CNS = tested on: SNB-19 CNS
SNB-75 CNS = tested on: SNB-75 CNS
SR leukemia = tested on: SR leukemia
SW-620 colon = tested on: SW-620 colon
T-47D breast = tested on: T-47D breast
TK-10 renal = tested on: TK-10 renal
U251 CNS = tested on: U251 CNS
UACC-257 melanoma = tested on: UACC-257 melanoma
UACC-62 melanoma = tested on: UACC-62 melanoma
UO-31 renal = tested on: UO-31 renal

CCCCN(CCCC)CC(C)(C)C(O)c1ccc(OC)c2ccccc12 (configuration not stated) showed a TGI (NCI-H226 lung) of 9.24 µM, a GI50 (NCI-H23 lung) of 2.29 µM and a TGI (NCI-H23 lung) of 9.36 µM. The GI50 (NCI-H460 lung) was 3.52 µM, the TGI (NCI-H460 lung) was 16.5 µM and the GI50 (NCI-H522 lung) was 4.18 µM. It also gave a TGI (NCI-H522 lung) of 18.5 µM, a GI50 (NCI/ADR-RES ovarian) of 6.13 µM and a TGI (NCI/ADR-RES ovarian) of 23.8 µM. For the same molecule, the GI50 (OVCAR-3 ovarian) was 2.84 µM, the TGI (OVCAR-3 ovarian) was 13.9 µM and the GI50 (OVCAR-4 ovarian) was 0.385 µM. For the same molecule, the TGI (OVCAR-4 ovarian) was 23.5 µM, the GI50 (OVCAR-5 ovarian) was 2.4 µM and the TGI (OVCAR-5 ovarian) was 16.4 µM. It also gave a GI50 (OVCAR-8 ovarian) of 9.76 µM, a TGI (OVCAR-8 ovarian) of 28.8 µM and a GI50 (PC-3 prostate) of 2.88 µM. For the same molecule, the TGI (PC-3 prostate) was 13.7 µM, the GI50 (RPMI-8226 leukemia) was 2.5 µM and the TGI (RPMI-8226 leukemia) was 5.93 µM. The GI50 (RXF 393 renal) was 1.5 µM, the TGI (RXF 393 renal) was 4.51 µM and the GI50 (SF-268 CNS) was 12.6 µM. The TGI (SF-268 CNS) was 38.3 µM, the GI50 (SF-295 CNS) was 2.28 µM and the TGI (SF-295 CNS) was 17.8 µM. For the same molecule, the GI50 (SK-MEL-2 melanoma) was 5.11 µM, the TGI (SK-MEL-2 melanoma) was 17.7 µM and the GI50 (SK-MEL-28 melanoma) was 11.3 µM. For the same molecule, the TGI (SK-MEL-28 melanoma) was 24.8 µM, the GI50 (SK-MEL-5 melanoma) was 2 µM and the TGI (SK-MEL-5 melanoma) was 4.95 µM. For the same molecule, the GI50 (SK-OV-3 ovarian) was 5.29 µM, the TGI (SK-OV-3 ovarian) was 28.7 µM and the GI50 (SN12C renal) was 4.54 µM. It also gave a TGI (SN12C renal) of 20.6 µM, a GI50 (SNB-19 CNS) of 10.6 µM and a TGI (SNB-19 CNS) of 28.6 µM. It also gave a GI50 (SNB-75 CNS) of 6.31 µM, a TGI (SNB-75 CNS) of 30.3 µM and a GI50 (SR leukemia) of 2.89 µM. For the same molecule, the TGI (SR leukemia) was 8.34 µM, the GI50 (SW-620 colon) was 2.54 µM and the TGI (SW-620 colon) was 14.5 µM. The GI50 (T-47D breast) was 3.77 µM, the TGI (T-47D breast) was 17 µM and the GI50 (TK-10 renal) was 8.02 µM. For the same molecule, the TGI (TK-10 renal) was 24.3 µM, the GI50 (U251 CNS) was 3.47 µM and the TGI (U251 CNS) was 13.4 µM. It also gave a GI50 (UACC-257 melanoma) of 6.31 µM, a TGI (UACC-257 melanoma) of 23.8 µM and a GI50 (UACC-62 melanoma) of 4.87 µM. For the same molecule, the TGI (UACC-62 melanoma) was 21.3 µM, the GI50 (UO-31 renal) was 3.02 µM and the TGI (UO-31 renal) was 17.4 µM.
